Measurements from paper PMC9362872 (Journal of Clinical Oncology, 2022).

Key:
[1] = assay type: in vivo, human
[2] = 28-day GLP dog toxicology studies; assay type: in vivo; conditions: dog (most sensitive species)
[3] = assay type: in vivo, human; remark: listed apart in the source
[4] = Projected human oral half-life; conditions: projection before first-in-human dosing
[5] = multiple doses of 150 mg and 300 mg once daily, individual patients
[6] = RP2D 600 mg twice a day (20 patients), any grade

Structure (SMILES): C=C(F)C(=O)N1CCN(c2nc(OC[C@@H]3CCCN3C)nc3c2CCN(c2cccc4cccc(Cl)c24)C3)C[C@@H]1CC#N [Adagrasib]
- PTR [1, 5]: approximately three
- drug accumulation [1, 5]: approximately three- to four-fold
- accumulation of adagrasib ([1]; multiple doses of 600 mg twice a day, steady state): approximately five- to six-fold
- highest nonseverely toxic dose (HNSTD) [2]: 25 mg/kg/day
- DLTs ([3]; 150 mg, 300 mg, 600 mg once daily, one patient each): No DLTs
- patients who experienced DLTs ([3]; 600 mg twice a day, DLT-evaluable patients): three of the 18
- patients who experienced a DLT ([3]; 600 mg twice a day, first cohort of six evaluable patients): one patient
- TRAE fatigue, grade 3/4 ([3]; RP2D 600 mg twice a day): 15.0%
- TRAE diarrhea [3, 6]: 70.0%
- TRAE fatigue [3, 6]: 45.0%
- TRAE nausea [3, 6]: 80.0%
- TRAE vomiting [3, 6]: 50.0%
- maximum tolerated dose ([3]; all dose cohorts): No maximum tolerated dose was formally defined
- patients who experienced one or more DLTs ([3]; all dose levels, 23 DLT-evaluable patients): 21.7%
- recommended phase II dose (RP2D) ([3]; oral, based on safety, tolerability and PK): 600 mg twice a day
- projected human oral t1/2 [4]: approximately 15 hours
